This is an account of results in patent US11584742B2 (MASARYKOVA UNIVERZITA, priority 2018, dated 2023).

The target of test [1] is T1, MRE11 (Homo sapiens, UniProt P49959).
T1 sequence (P49959 1-708): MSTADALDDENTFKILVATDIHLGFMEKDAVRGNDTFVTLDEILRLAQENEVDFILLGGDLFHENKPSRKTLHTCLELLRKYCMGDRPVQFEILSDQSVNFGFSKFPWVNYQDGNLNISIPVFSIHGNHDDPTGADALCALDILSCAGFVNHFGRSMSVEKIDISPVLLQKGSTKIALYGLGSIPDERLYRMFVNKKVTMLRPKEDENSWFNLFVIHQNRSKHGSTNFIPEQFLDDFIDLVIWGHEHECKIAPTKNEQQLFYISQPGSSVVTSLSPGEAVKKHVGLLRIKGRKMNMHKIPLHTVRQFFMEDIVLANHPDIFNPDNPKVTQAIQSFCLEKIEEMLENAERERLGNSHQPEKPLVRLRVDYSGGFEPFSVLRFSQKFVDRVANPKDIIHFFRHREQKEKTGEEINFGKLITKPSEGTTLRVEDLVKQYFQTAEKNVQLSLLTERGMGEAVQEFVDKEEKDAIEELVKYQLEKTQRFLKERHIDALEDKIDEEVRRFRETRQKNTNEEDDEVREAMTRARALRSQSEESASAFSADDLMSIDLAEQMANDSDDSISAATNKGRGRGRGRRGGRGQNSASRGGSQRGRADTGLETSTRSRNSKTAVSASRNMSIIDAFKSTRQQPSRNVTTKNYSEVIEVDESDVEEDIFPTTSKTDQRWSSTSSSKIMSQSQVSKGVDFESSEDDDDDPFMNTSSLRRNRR
The experiment in a line: HTS nuclease assay (cleavage of CY5/BBQ-quenched 5' overhang DNA substrate). It is filed as biochemical. To be noted: in vitro HTS nuclease assay; 18 nM MRE11, 40 nM DNA substrate; analysis at t=4 h.

Test [2] relates to DR-GFP U2OS cells. The experiment in a line: HR assay (GFP fluorescence after I-SceI transfection, flow cytometry). It is filed as cell-based. The conditions noted are these: Homo sapiens, inhibitor at 25 μM, 72 hours after transfection. The procedure:
DR-GFP U2OS cells (Methods in Molecular Biology 2012, 920, 379.) were transfected with 2.5 μg of I-SceI-expressing pCAGGS vector and treated with the inhibitors at 25 μM concentration. 72 hours after the transfection, the cells were trypsinized and resuspended in 3% BSA in PBS. GFP fluorescence detection was carried out using a BD FACSVerse flow cytometer and data analyzed with FlowJo software.
(In general: In flow cytometry, cells or beads pass a laser one at a time.)

Test [3] relates to Phosphorylated RPA32 S4/S8 in U2OS cells. The experiment in a line: RPA assay (RPA phosphorylation after camptothecin). The class given is cell-based. The conditions noted are these: Homo sapiens, U2OS cells pre-treated 1 h, then 1 uM camptothecin 1 h; for inhibition at 10 µM: inhibitor at 10 μM. The procedure: U2OS cells were pre-treated for 1 h with MRE11 inhibitors followed by addition of 1 uM camptothecin for 1 h. Cells were lysed in SDS-PAGE loading buffer, sonicated and boiled at 70° C. for 10 min. Equal amounts of protein (50-100 μg) were analysed by Tris-glycine gel electrophoresis Expression levels were quantified using Multi Gauge software and expressed relative to loading control. Phosphorylated RPA32 S4/S8 (A300-245A, Bethyl Laboratories) 1:1000 dilution was used.

For orientation: IC50 means the concentration needed to halve the response being measured. Lower therefore signals greater potency in that assay. A word on the inhibition: it is the relative decrease from the control value, in per cent. On to `N#C/C(=C\c1ccc(O)c(O)c1)C(=O)Nc1nc(-c2cc3ccccc3o2)cs1` [Preparative Example 173, (E)-N-(4-(benzofuran-2-yl)thiazol-2-yl)-2-cyano-3-(3,4-dihydroxyphenyl)acrylamide], for which, in test [1], the IC50 was below 2 µM. In addition, the inhibition at 25 µM in test [2] was above 75%.
The compound `N#C/C(=C\c1cc(Cl)c(O)c(Cl)c1)C(=O)Nc1nc(-c2ccccn2)cs1` [Preparative Example 243, (E)-2-cyano-3-(3,5-dichloro-4-hydroxyphenyl)-N-(4-(pyridin-2-yl)thiazol-2-yl)acrylamide] came in with an IC50 in test [1] below 2 µM. Moreover, the inhibition at 25 µM in test [2] lay in the range of 50 to 75%. The inhibition at 10 µM in test [3] turned out to be 100%.
The compound `Cc1ccc(-c2csc(NC(=O)/C(C#N)=C/c3ccc(O)c(O)c3)n2)cn1` [Preparative Example 232, (E)-2-cyano-3-(3,4-dihydroxyphenyl)-N-(4-(6-methylpyridin-3-yl)thiazol-2-yl)acrylamide] yielded an IC50 in test [1] below 2 µM. In addition, the inhibition at 25 µM in test [2] was below 50%.
The corresponding values for `N#C/C(=C\c1cc(F)c(O)c(F)c1)C(=O)Nc1nc(-c2ccccc2)cs1` [Preparative Example 212, (E)-2-cyano-3-(3,5-difluoro-4-hydroxyphenyl)-N-(4-phenylthiazol-2-yl)acrylamide] are 10 to 90 µM and below 50%.
In the case of `COc1ccc(-c2csc(NC(=O)/C(C#N)=C/c3ccc(O)c(O)c3)n2)cn1` [Preparative Example 241, (E)-2-cyano-3-(3,4-dihydroxyphenyl)-N-(4-(6-methoxypyridin-3-yl)thiazol-2-yl)acrylamide], the IC50 in test [1] is below 2 µM. The inhibition at 25 µM is below 50% in test [2] and 75% in test [3] (inhibitor at 25 μM).
In test [1], `N#C/C(=C\c1ccc(O)c(O)c1)C(=O)Nc1nc(-c2ccccc2)c(-c2ccccc2)s1` [Preparative Example 176, (E)-2-cyano-3-(3,4-dihydroxyphenyl)-N-(4,5-diphenylthiazol-2-yl)acrylamide] yielded an IC50 below 2 µM. The same compound returned an inhibition at 25 µM in test [2] above 75%.
`N#C/C(=C\c1ccc(O)c(O)c1)C(=O)Nc1nc(-c2cc(F)cc(F)c2)cs1` [Preparative Example 185, (E)-2-cyano-N-(4-(3,5-difluorophenyl)thiazol-2-yl)-3-(3,4-dihydroxyphenyl)acrylamide] showed an IC50 in test [1] below 2 µM. The compound further returned an inhibition at 25 µM in test [2] of 50 to 75%.
Compound `COc1cccnc1-c1csc(NC(=O)/C(C#N)=C/c2ccc(O)c(O)c2)n1` [Preparative Example 242, (E)-2-cyano-3-(3,4-dihydroxyphenyl)-N-(4-(3-methoxypyridin-2-yl)thiazol-2-yl)acrylamide] showed an IC50 in test [1] below 2 µM. Further, the inhibition at 25 µM in test [2] was above 75%. Further, the inhibition at 10 µM in test [3] was 95%.
Regarding `N#C/C(=C\c1ccc(O)c2ccccc12)C(=O)Nc1nc(-c2ccccc2)cs1` [Preparative Example 227, (E)-2-cyano-3-(4-hydroxynaphthalen-1-yl)-N-(4-phenylthiazol-2-yl)acrylamide], the concentration for half-maximal inhibition (IC50) in test [1] lay within 2 to 10 µM. Besides, the inhibition at 25 µM in test [2] is above 75%.
On the same counts, the results for `N#C/C(=C\c1ccc(O)c(-c2ccccc2)c1)C(=O)Nc1nc(-c2ccccc2)cs1` [Preparative Example 211, (E)-2-cyano-3-(6-hydroxy-[1,1′-biphenyl]-3-yl)-N-(4-phenylthiazol-2-yl)acrylamide] are 10 to 90 µM and below 50%.
The corresponding values for `CC(=O)Nc1cccc(/C=C(\C#N)C(=O)Nc2nc(-c3ccccc3)cs2)c1` [Preparative Example 207, 3-(3-acetamidophenyl)-2-cyano-N-(4-phenylthiazol-2-yl)acrylamide] are 2 to 10 µM and 50 to 75%.
Consider `N#C/C(=C\c1ccc(O)cc1F)C(=O)Nc1nc(-c2ccccc2)cs1` [Preparative Example 226, (E)-2-cyano-3-(2-fluoro-4-hydroxyphenyl)-N-(4-phenylthiazol-2-yl)acrylamide], for which the IC50 in test [1] lay within 10 to 90 µM. In test [2], this compound gave an inhibition at 25 µM above 75%.
On the same counts, the results for `N#C/C(=C\c1ccc(O)c(O)c1)C(=O)Nc1nc(-c2ccc(OC(F)(F)F)cc2)c(C2CCCCC2)s1` [Preparative Example 175, (E)-2-cyano-N-(5-cyclohexyl-4-(4-(trifluoromethoxy)phenyl)thiazol-2-yl)-3-(3,4-dihydroxyphenyl)acrylamide] are 2 to 10 µM and above 75%.
On the same counts, the results for `N#C/C(=C\c1ccc(O)c(O)c1)C(=O)Nc1nc(-c2cccc(C#N)c2)cs1` [Preparative Example 180, (E)-2-cyano-N-(4-(3-cyanophenyl)thiazol-2-yl)-3-(3,4-dihydroxyphenyl)acrylamide] are below 2 µM and 50 to 75%.
On the same counts, the results for `CC(C)(O)c1csc(NC(=O)/C(C#N)=C/c2ccc(O)c(O)c2)n1` [Preparative Example 167, (E)-2-cyano-3-(3,4-dihydroxyphenyl)-N-(4-(2-hydroxypropan-2-yl)thiazol-2-yl)acrylamide] are 2 to 10 µM and below 50%.
Consider `N#C/C(=C\c1ccc(O)c(O)c1)C(=O)Nc1nc(-c2ccc(-c3ccccc3)cc2)cs1` [Preparative Example 164, (E)-N-(4-([1,1′-biphenyl]-4-yl)thiazol-2-yl)-2-cyano-3-(3,4-dihydroxyphenyl)acrylamide], for which the concentration for half-maximal inhibition (IC50) in test [1] fell in the range of 2 to 10 µM. The compound further displayed an inhibition at 25 µM in test [2] above 75%.
The corresponding values for `N#C/C(=C\c1ccc(O)c(O)c1)C(=O)Nc1nc(-c2ccc(Oc3ccccc3)cc2)cs1` [Preparative Example 172, (E)-2-cyano-3-(3,4-dihydroxyphenyl)-N-(4-(4-phenoxyphenyl)thiazol-2-yl)acrylamide] are 2 to 10 µM and above 75%.
The corresponding values for `N#C/C(=C\c1ccc2[nH]c(=O)[nH]c2c1)C(=O)Nc1nc(-c2ccccc2)cs1` [Preparative Example 216, (E)-2-cyano-3-(2-oxo-2,3-dihydro-1H-benzo[d]imidazol-5-yl)-N-(4-phenylthiazol-2-yl)acrylamide] are 10 to 90 µM and below 50%.
The corresponding values for `N#C/C(=C\c1ccc(O)c(O)c1)C(=O)Nc1nc(-c2ccc(C#N)s2)cs1` [Preparative Example 183, (E)-2-cyano-N-(4-(5-cyanothiophen-2-yl)thiazol-2-yl)-3-(3,4-dihydroxyphenyl)acrylamide] are below 2 µM and below 50%.
As for `N#C/C(=C\c1cccc(C(=O)O)c1)C(=O)Nc1nc(-c2ccccc2)cs1` [Preparative Example 210, (E)-3-(2-cyano-3-oxo-3-((4-phenylthiazol-2-yl)amino)prop-1-en-1-yl)benzoic acid], in test [1], the IC50 was 10 to 90 µM. The same compound showed an inhibition at 25 µM in test [2] below 50%.
The corresponding values for `N#C/C(=C\c1ccc(O)c(O)c1)C(=O)Nc1nc(C23CC4CC(CC(C4)C2)C3)cs1` [Preparative Example 174, (E)-N-(4-((1S,3s)-adamantan-1-yl)thiazol-2-yl)-2-cyano-3-(3,4-dihydroxyphenyl)acrylamide] are 2 to 10 µM and 50 to 75%.
On the same counts, the results for `N#C/C(=C\c1ccc(O)c(O)c1)C(=O)Nc1nc(-c2ccccc2)c(Cl)s1` [Preparative Example 195, (E)-N-(5-chloro-4-phenylthiazol-2-yl)-2-cyano-3-(3,4-dihydroxyphenyl)acrylamide] are below 2 µM and 50 to 75%.
